Measurements from ChEMBL document CHEMBL1149587 (2007).

What was measured:
Type in all cases: functional
Rattus norvegicus [1] = experiment: Elimination of D-xylose from 18 days old Sprague-Dawley suckling rat urine at 4 mg, po
Rattus norvegicus [2] = experiment: Elimination of D-xylose from 30 days old Sprague-Dawley suckling rat urine at 4 mg, po
Rattus norvegicus [3] = experiment: Elimination of D-xylose from 15 days old Sprague-Dawley suckling rat urine at 4 mg, po

| Structure (SMILES) | Activity (Rattus norvegicus [1]) [%] | Activity (Rattus norvegicus [2]) [%] | Activity (Rattus norvegicus [3]) [%] |
| --- | --- | --- | --- |
| OC[C@H]1O[C@@H](O[C@H]2C(O)OC[C@@H](O)[C@@H]2O)[C@H](O)[C@@H](O)[C@H]1O (some centres undefined) | 20.71 | 9.43 | 23.1 |
| OC[C@H]1O[C@@H](O[C@H]2[C@H](O)COC(O)[C@@H]2O)[C@H](O)[C@@H](O)[C@H]1O (some centres undefined) | 20.63 | 19.39 | 23.3 |
| OC[C@H]1O[C@@H](O[C@@H]2COC(O)[C@H](O)[C@H]2O)[C@H](O)[C@@H](O)[C@H]1O (some centres undefined) | 6.99 | 3.05 | 23.66 |
